How the values were obtained:
[1] = Metabolic stability in human liver microsomes; assay type: in vitro ADME; conditions: LM Clint (intrinsic clearance); 1 μM test compound, 0.5 mg protein/mL microsome, 37° C., up to 60 min
Method: 2.1. Test Compound and Control Working Solution Preparation: Working solution: 5 µL of compound and control stock solution (10 mM in dimethyl sulfoxide (DMSO)) were diluted with 495 μL of acetonitrile (ACN) (intermediate solution concentration: 100 μM, 99% ACN).
2.2.1. […] 2.2.2. Preparation Procedure: The appropriate amount of NADPH powder were weighed and diluted into a 10 mM MgCl2 solution (working solution concentration: 10 unit/mL; final concentration in reaction system: 1 unit/mL).
2.3.2. Preparation Procedure: The appropriate concentrations of microsome working solutions were prepared in 100 mM potassium phosphate buffer. 2.4. Stop Solution Preparation: Cold (4° C.) acetonitrile (ACN) containing 200 ng/mL tolbutamide and 200 ng/mL labetalol as internal standards (IS) were used as the stop solution.
2.5.1. Pre-warm empty ‘Incubation’ plates T60 and NCF60 for 10 min minutes. 2.5.2. Liver microsomes were diluted to 0.56 mg/mL in 100 mM phosphate buffer. 2.5.3. 445 uL microsome working solutions (0.56 mg/mL) were transferred into pre-warmed ‘Incubation’ plates T60 and NCF60. Then ‘Incubation’ plates T60 and NCF60 were pre-incubated for 10 min at 37° C. with constant shaking. 54 μL liver microsomes were transferred to blank plate, then 6 μL NAPDH cofactor were added to the blank plate, and then 180 μL quenching solution can be added to blank plate. 2.5.4 5 μL compound working solution (100 μM) were added into ‘incubation’ plates (T60 and NCF60) containing microsomes and mix 3 times thoroughly. 2.5.5. For the NCF60 plate, 50 uL of buffer were added and were mixed 3 times thoroughly. Start timing; plate was incubated at 37° C. for 60 min while shaking. 2.5.6. In ‘Quenching’ plate TO, 180 μL quenching solution were added and 6 μL NAPDH cofactor were added. Ensured the plate was chilled to prevent evaporation. 2.5.7. For the T60 plate, were mixed 3 times thoroughly, and immediately removed 54 μL mixture for the 0-min time point to ‘Quenching’ plate. Then 44 μL NAPDH cofactor were added to incubation plate (T60). Start timing; plate were incubated at 37° C. for 60 min while shaking.
2.5.8. At 5, 10, 20, 30, and 60 min, 180 μL quenching solution were added to ‘Quenching’ plates, mix once, and were serially transferred 60 μL sample from T60 plate per time point to ‘Quenching’ plates.
2.5.9. For NCF60: were mixed once, and 60 μL sample were transferred from the NCF60 incubation to ‘Quenching’ plate containing quenching solution at the 60-min time point.
2.5.10. All sampling plates were shaken for 10 min, then centrifuged at 4000 rpm for 20 minutes at 4° C. 2.5.11. 80 μL supernatant were transferred into 240 μL HPLC water, and were mixed by plate shaker for 10 min. 2.5.12. Each bioanalysis plate were sealed and shaken for 10 minutes prior to LC-MS/MS analysis.
3.1. The equation of first order kinetics were used to calculate T1/2 and Intrinsic clearance (CLint mic) in (μL/min/mg).
Equation of first order kinetic.

[2] = target: T1, TNIK kinase [amino acid sequence (1-367), Invitrogen] (Homo sapiens, UniProt Q9UKE5); test: TNIK kinase inhibition assay (Z-lyte FRET-peptide); assay type: biochemical; conditions: 0.625 nM TNIK kinase, 2 μM Ser/Thr 7 peptide, 64 μM ATP, one hour at room temperature
T1 construct: purchased Invitrogen
Method: Z-lyte assay kit was purchased from Invitrogen. A site-specific protease recognizes and cleaves non-phosphorylated FRET-peptides. Phosphorylation of FRET-peptides suppresses cleavage by protease and will maintain FRET from donor to acceptor.
5 μl of Development Reagent A solution was then added to cleave non-phosphorylated peptide with a dilution 1:65000 in Development Buffer B. The assay plate was incubated at room temperature for another one hour and then read in the Envision plate reader (PerkinElmer).

T1 sequence (Q9UKE5 1-367): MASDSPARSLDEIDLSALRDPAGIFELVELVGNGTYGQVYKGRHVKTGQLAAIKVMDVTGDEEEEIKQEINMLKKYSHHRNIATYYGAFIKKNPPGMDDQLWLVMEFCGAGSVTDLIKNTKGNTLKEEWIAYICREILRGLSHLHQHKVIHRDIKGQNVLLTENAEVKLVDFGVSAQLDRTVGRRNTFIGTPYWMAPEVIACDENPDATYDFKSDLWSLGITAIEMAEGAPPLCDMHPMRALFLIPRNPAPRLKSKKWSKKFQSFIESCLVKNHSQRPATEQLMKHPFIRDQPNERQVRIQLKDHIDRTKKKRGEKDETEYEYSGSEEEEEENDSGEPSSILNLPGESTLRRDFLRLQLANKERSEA

| Human Liver Microsome (μM/min/mg) [1] | IC50 [2] [nM] | SMILES |
| --- | --- | --- |
| ++ (10-100 μM/min/mg as ++) | 1 to 12 | CC(C)n1cnc(-c2ccc(F)cc2)c1-c1nc(C(=O)Nc2ccc(N3CCN(C)CC3)cc2)cs1 [Compound 2, 2-(4-(4-fluorophenyl)-1-isopropyl-1H-imidazol-5-yl)-N-(4-(4-methylpiperazin-1-yl)phenyl)thiazole-4-carboxamide] |
| + (>100 μM/min/mg as +) | 1 to 12 | CC(C)n1cnc(-c2ccc(F)cc2)c1-c1nc(C(=O)Nc2ccc(N3CCN(C)CC3)cc2F)cs1 [Compound 6, N-(2-fluoro-4-(4-methylpiperazin-1-yl)phenyl)-2-(4-(4-fluorophenyl)-1-isopropyl-1H-imidazol-5-yl)thiazole-4-carboxamide] |
| + (>100 μM/min/mg as +) | 1 to 12 | CC(C)n1cnc(-c2ccc(F)cc2)c1-c1nc(C(=O)Nc2ccc(N3CCN(C)CC3)cn2)cs1 [Compound 7, 2-(4-(4-fluorophenyl)-1-isopropyl-1H-imidazol-5-yl)-N-(5-(4-methylpiperazin-1-yl)pyridin-2-yl)thiazole-4-carboxamide] |
| + (>100 μM/min/mg as +) | 1 to 12 | CC(C)n1cnc(-c2ccc(F)cc2)c1-c1nc(C(=O)Nc2ccc(N3CCN(C)CC3)nc2)cs1 [Compound 8, 2-(4-(4-fluorophenyl)-1-isopropyl-1H-imidazol-5-yl)-N-(6-(4-methylpiperazin-1-yl)pyridin-3-yl)thiazole-4-carboxamide] |
| ++ (10-100 μM/min/mg as ++) | 1 to 12 | CC(C)n1cnc(-c2ccc(F)cc2)c1-c1nc(C(=O)Nc2ccc(C3CCN(C)CC3)cn2)cs1 [Compound 9, 2-(4-(4-fluorophenyl)-1-isopropyl-1H-imidazol-5-yl)-N-(5-(1-methylpiperidin-4-yl)pyridin-2-yl)thiazole-4-carboxamide] |
| ++ (10-100 μM/min/mg as ++) | 1 to 12 | CC(C)n1cnc(-c2ccc(F)cc2)c1-c1csc(C(=O)Nc2ccc(N3CCN(C)CC3)cc2F)n1 [Compound 12, N-(2-fluoro-4-(4-methylpiperazin-1-yl)phenyl)-4-(4-(4-fluorophenyl)-1-isopropyl-1H-imidazol-5-yl)thiazole-2-carboxamide] |
| + (>100 μM/min/mg as +) | 1 to 12 | CC(C)n1cnc(-c2ccc(F)cc2)c1-c1csc(C(=O)Nc2ccc(N3CCN(C)CC3)cn2)n1 [Compound 13, 4-(4-(4-fluorophenyl)-1-isopropyl-1H-imidazol-5-yl)-N-(5-(4-methylpiperazin-1-yl)pyridin-2-yl)thiazole-2-carboxamide] |
| ++ (10-100 μM/min/mg as ++) | 1 to 12 | CC(C)n1cnc(-c2ccc(F)cc2)c1-c1nc(C(=O)Nc2ccc(N3CCN(C)CC3)cc2F)c[nH]1 [Compound 14, N-(2-fluoro-4-(4-methylpiperazin-1-yl)phenyl)-5′-(4-fluorophenyl)-3′-isopropyl-1H,3′H-[2,4′-biimidazole]-4-carboxamide] |
| ++ (10-100 μM/min/mg as ++) | – | O=C(Nc1ccc(N2CCOCC2)cn1)c1c[nH]c(-c2c(-c3ccc(F)cc3)ncn2C2COC2)n1 [Compound 72, 5′-(4-fluorophenyl)-N-(5-morpholinopyridin-2-yl)-3′-(oxetan-3-yl)-1H,3′H-[2,4′-biimidazole]-4-carboxamide] |
| – | 12 to 150 | CC(C)c1onc(-c2ccc(F)cc2)c1-c1nc(C(=O)Nc2ccc(C3CN(C)C3)cn2)co1 [Compound 107, 2-(3-(4-fluorophenyl)-5-isopropylisoxazol-4-yl)-N-(5-(1-methylazetidin-3-yl)pyridin-2-yl)oxazole-4-carboxamide] |
| – | 1 to 12 | [2H]C([2H])([2H])N1CC(c2ccc(NC(=O)c3csc(-c4c(-c5ccc(F)cc5)ncn4C([2H])(C)C)n3)nc2)C1 [Compound 110, 2-[3-(1-deuterio-1-methyl-ethyl)-5-(4-fluorophenyl)imidazol-4-yl]-N-[5-[1-(trideuteriomethyl)azetidin-3-yl]-2-pyridyl]thiazole-4-carboxamide] |
| – | 12 to 150 | [2H]C([2H])([2H])N1CC(c2ccc(NC(=O)c3coc(-c4c(-c5ccc(F)cc5)ncn4C([2H])(C)C)n3)nc2)C1 [Compound 111] |
| – | 12 to 150 | [2H]C([2H])([2H])N1CC(c2ccc(NC(=O)c3coc(-c4c(-c5ccc(F)cc5)ncn4C(C)C)n3)nc2)C1 [Compound 112, 2-[5-(4-fluorophenyl)-3-isopropyl-imidazol-4-yl]-N-[5-[1 (trideuteriomethyl)azetidin-3-yl]-2-pyridyl]oxazole-4-carboxamide] |
| – | 12 to 150 | [2H]C([2H])([2H])N1CC(c2ccc(NC(=O)c3c[nH]c(-c4c(-c5ccc(F)cc5)ncn4C(C)C)n3)nc2)C1 [Compound 113] |
| – | 1 to 12 | [2H]C([2H])([2H])N1CC(c2ccc(NC(=O)c3csc(-c4c(C(C)C)cnn4-c4ccc(F)cc4)n3)nc2)C1 [Compound 116, 2-(1-(4-fluorophenyl)-4-isopropyl-1H-pyrazol-5-yl)-N-(5-(1-(trideuteriomethyl)azetidin-3-yl)pyridin-2-yl)thiazole-4-carboxamide] |
| – | 12 to 150 | [2H]C([2H])([2H])N1CC(c2ccc(NC(=O)c3c[nH]c(-c4c(-c5ccc(F)cc5)ncn4C([2H])(C)C)n3)nc2)C1 [Compound 118] |
| – | 12 to 150 | [2H]C([2H])([2H])N1CC(c2ccc(NC(=O)c3c[nH]c(-c4c(-c5ccc(F)cc5)ncn4C4CCC4)n3)nc2)C1 [Compound 119, 2-[3-cyclobutyl-5-(4-fluorophenyl)imidazol-4-yl]-N-[5-[1-(trideuteriomethyl)azetidin-3-yl]-2-pyridyl]-1H-imidazole-4-carboxamide] |
| – | 1 to 12 | [2H]C([2H])([2H])N1CC(c2ccc(NC(=O)c3c[nH]c(-c4c(-c5ccc(F)cc5)ncn4C4CCC4)n3)c(F)c2)C1 [Compound 120, 2-[3-cyclobutyl-5-(4-fluorophenyl)imidazol-4-yl]-N-[2-fluoro-4-[1-(trideuteriomethyl)azetidin-3-yl]phenyl]-1H-imidazole-4-carboxamide] |
| ++ (10-100 μM/min/mg as ++) | – | [2H]C([2H])([2H])N1CC(c2ccc(NC(=O)c3nc(-c4c(-c5ccc(F)cc5)ncn4C(C)C)cs3)nc2)C1 [Compound 130, 4-[5-(4-fluorophenyl)-3-isopropyl-imidazol-4-yl]-N-[5-[1-(trideuteriomethyl)azetidin-3-yl]-2-pyridyl]thiazole-2-carboxamide] |
| ++ (10-100 μM/min/mg as ++) | – | [2H]C([2H])([2H])N1CC(c2ccc(NC(=O)c3nc(-c4c(-c5ccc(F)cc5)ncn4C(C)C)cs3)c(F)c2)C1 [Compound 131, 4-[5-(4-fluorophenyl)-3-isopropyl-imidazol-4-yl]-N-[2-fluoro-4-[1-(trideuteriomethyl)azetidin-3-yl]phenyl]thiazole-2-carboxamide] |
| – | 12 to 150 | [2H]C(C)(C)n1cnc(-c2ccc(F)cc2)c1-c1nc(C(=O)Nc2ccc(N3CCN(CC)CC3)cc2)c[nH]1 [Compound 135, 2-[3-(1-deuterio-1-methyl-ethyl)-5-(4-fluorophenyl)imidazol-4-yl]-N-[4-(4-ethylpiperazin-1-yl)phenyl]-1H-imidazole-4-carboxamide] |

— patent US20240336611A1 (Insilico Medicine IP Limited, priority 2021, published 2024)
